Measurements taken from patent EP4817687A2, “NUCLEOTIDE AND NUCLEOSIDE THERAPEUTIC COMPOSITIONS AND USES RELATED THERETO” (Emory University, priority 2013, dated 2015).
Where two headings read alike, the source gives them in different places.

Columns and labels:
[1] = molecular target: HCV NS5B polymerase (Hepatitis C virus genotype 1b, UniProt Q9WMX2); assay: HCV NS5B pol assay (NS5B RNA-dependent RNA polymerase reaction, filter binding); assay type: biochemical; settings: 1 h; for IC25: read-out: HCV NS5B pol assay (^32P-GTP) IC25; for IC95: read-out: HCV NS5B pol assay (^32P-GTP) IC95
[2] = Cytotoxicity panel (CC50), Huh-7; assay type: cell-based, human; settings: human, huh-7 cells
[3] = Cytotoxicity panel (CC50), HepG2; assay type: cell-based; settings: human, hepg2 cells
[4] = Cytotoxicity panel (CC50), CEM; assay type: cell-based; settings: human, cem cells
[5] = Cytotoxicity panel (CC50), BxPC3; assay type: cell-based; settings: human, bxpc3 cells
[6] = Cytotoxicity panel (CC50), H9c; assay type: cell-based; settings: rat, h9c cells
[7] = Cytotoxicity panel (CC50), A204; assay type: cell-based; settings: human, a204 cells
[8] = Cytotoxicity panel (CC50), IEC-6; assay type: cell-based; settings: rat, iec-6 cells
[9] = test system: HepG2; assay: Cytotoxicity panel (CC50), HepG2; assay type: cell-based; settings: HepG2
[10] = test system: H9c; assay: Cytotoxicity panel (CC50), H9c; assay type: cell-based; settings: H9c
[11] = test system: Huh-7; assay: Cytotoxicity panel (CC50), Huh-7; assay type: cell-based, human; settings: Huh-7
[12] = test system: A204; assay: Cytotoxicity panel (CC50), A204; assay type: cell-based; settings: A204
[13] = test system: IEC-6; assay: Cytotoxicity panel (CC50), IEC-6; assay type: cell-based; settings: IEC-6
[14] = test system: BxPC3; assay: Cytotoxicity panel (CC50), BxPC3; assay type: cell-based; settings: BxPC3
[15] = test system: 3a (GT1b/3a NS5B chimera); assay: microbe, parasite or virus in culture; assay type: cell-based, HCV; settings: Hepatitis C virus, read-out: EC50(µM) 3a (GT1b/3a NS5B chimera)
[16] = test system: 2b (GT1b/2b NS5B chimera); assay: microbe, parasite or virus in culture; assay type: cell-based, HCV; settings: Hepatitis C virus, read-out: EC50(µM) 2b (GT1b/2b NS5B chimera)
[17] = test system: GT1b-NS5B-S282T; assay: microbe, parasite or virus in culture; assay type: cell-based, HCV; settings: Hepatitis C virus, read-out: EC50(µM) GT1b-NS5B-S282T
[18] = Cytotoxicity (CC50) in the GT1b replicon test; assay type: cell-based; settings: gt1b replicon cells
[19] = test system: GT1b-NS5B-S96T; assay: microbe, parasite or virus in culture; assay type: cell-based, HCV; settings: Hepatitis C virus, read-out: EC50(µM) GT1b-NS5B-S96T
[20] = test system: 4a (GT1b/4a NS5B chimera); assay: microbe, parasite or virus in culture; assay type: cell-based, HCV; settings: Hepatitis C virus, read-out: EC50(µM) 4a (GT1b/4a NS5B chimera)
[21] = test system: Dengue Type 2; assay: Anti-Dengue Virus Cytoprotection Assay, Dengue Type 2
[22] = Anti-Dengue assay, toxicity (XTT) in Vero cells; settings: monkey

C[C@@]1(F)[C@H](O)[C@@H](COP(=O)(O)OP(=O)(O)OP(=O)(O)O)O[C@H]1n1ccc(=O)[nH]c1=O
IC25 [1]: 0.52 µM | IC95 [1]: 9.91 µM

C[C@@]1(O)[C@H](O)[C@@H](COP(=O)(O)OP(=O)(O)OP(=O)(O)O)O[C@H]1n1ccc(=O)[nH]c1=[Se]
IC25 [1]: 6.82 µM | IC95 [1]: > 100 µM

O=c1[nH]c(=S)ccn1[C@@H]1O[C@H](CO)[C@@H](O)[C@H]1O
CC50 [2]: 60 µM

C[C@@]1(O)[C@H](O)[C@@H](CO)O[C@H]1n1ccc(=S)[nH]c1=O
CC50 [2]: > 100 µM | CC50 [3]: > 400 µM | CC50 [4]: > 400 µM | CC50 [5]: > 100 µM

C[C@@]1(F)[C@H](O)[C@@H](CO)O[C@H]1n1ccc(=S)[nH]c1=O
CC50 [2]: > 400 µM | CC50 [3]: > 400 µM | CC50 [4]: > 400 µM

CC(C)OC(=O)[C@H](C)NP(=O)(OC[C@H]1O[C@@H](n2ccc(=S)[nH]c2=O)[C@](C)(F)[C@@H]1O)Oc1ccccc1 (stereo partly drawn)
CC50 [6]: > 400 µM | CC50 [2]: > 300 µM | CC50 [7]: > 200 µM | CC50 [8]: > 400 µM | CC50 [5]: > 300 µM

CC(C)OC(=O)[C@H](C)NP(=O)(OC[C@H]1O[C@@H](n2ccc(=O)[nH]c2=O)[C@](C)(O)[C@@H]1O)Oc1ccccc1 (stereo partly drawn)
CC50 [8]: 80 µM

CC(C)OC(=O)[C@H](C)NP(=O)(OC[C@H]1O[C@@H](n2ccc(=O)[nH]c2=[Se])[C@](C)(O)[C@@H]1O)Oc1ccccc1 (stereo partly drawn)
CC50 [2]: > 100 µM | CC50 [3]: > 400 µM | CC50 [7]: > 400 µM | CC50 [5]: > 400 µM

CC(C)OC(=O)[C@H](C)N[P@@](=O)(OC[C@H]1O[C@@H](n2ccc(=O)[nH]c2=O)[C@](C)(F)[C@@H]1O)Oc1ccccc1
CC50 [2]: > 400 µM | CC50 [3]: > 400 µM | CC50 [4]: > 400 µM

C[C@H](NP(=O)(O)OC[C@H]1O[C@@H](n2ccc(=O)[nH]c2=S)[C@](C)(O)[C@@H]1O)C(=O)O
CC50 [2]: > 400 µM | CC50 [3]: > 400 µM | CC50 [4]: > 400 µM

C[C@@]1(O)[C@H](O)[C@@H](COP(=O)(O)O)O[C@H]1n1ccc(=O)[nH]c1=S
CC50 [2]: > 400 µM | CC50 [3]: > 400 µM | CC50 [4]: > 400 µM

CC(C)OC(=O)[C@H](C)NP(=O)(OC[C@H]1O[C@@H](n2ccc(=S)[nH]c2=O)[C@H](O)[C@@H]1O)Oc1ccccc1 (stereo partly drawn) [drawing 445]
CC50 [9]: > 400 µM

CC(C)OC(=O)[C@H](C)NP(=O)(OC[C@H]1O[C@@H](n2ccc(=S)[nH]c2=O)[C@](C)(O)[C@@H]1O)Oc1ccccc1 (stereo partly drawn) [drawing 447]
CC50 [10]: > 200 µM | CC50 [11]: > 400 µM | CC50 [12]: > 200 µM | CC50 [13]: > 400 µM | CC50 [14]: > 300 µM

CC(C)OC(=O)[C@H](C)NP(=O)(OC[C@H]1O[C@@H](n2ccc(=O)[nH]c2=S)[C@H](O)[C@@H]1O)Oc1ccccc1 (stereo partly drawn) [drawing 451]
CC50 [11]: > 400 µM

C[C@@]1(O)[C@H](O)[C@@H](CO)O[C@H]1n1ccc(=O)[nH]c1=S [drawing 452]
CC50 [2]: > 100 µM | CC50 [3]: > 400 µM | CC50 [4]: > 200 µM | CC50 [5]: > 100 µM

CC(C)OC(=O)[C@H](C)NP(=O)(OC[C@H]1O[C@@H](n2ccc(=O)[nH]c2=S)[C@](C)(O)[C@@H]1O)Oc1ccccc1 (stereo partly drawn) [drawing 453]
CC50 [6]: > 200 µM | CC50 [2]: > 400 µM | CC50 [3]: > 400 µM | CC50 [4]: > 300 µM | CC50 [7]: 98 µM | CC50 [8]: > 200 µM | CC50 [5]: > 300 µM

CC(C)OC(=O)[C@H](C)NP(=O)(OC[C@H]1O[C@@H](n2ccc(=S)[nH]c2=O)[C@](C)(O)[C@@H]1O)Oc1ccccc1 (stereo partly drawn) [drawing 455]
CC50 [6]: > 200 µM | CC50 [2]: > 400 µM | CC50 [3]: > 400 µM | CC50 [4]: 169 µM | CC50 [7]: > 200 µM | CC50 [8]: > 400 µM | CC50 [5]: > 300 µM

CC(C)OC(=O)[C@H](C)N[P@](=O)(OC[C@H]1O[C@@H](n2ccc(=O)[nH]c2=O)[C@](C)(F)[C@@H]1O)Oc1ccccc1 [drawing 460]
CC50 [4]: > 400 µM

CC(C)OC(=O)[C@H](C)NP(=O)(OC[C@H]1O[C@@H](n2ccc(=S)[nH]c2=O)[C@H](O)[C@@H]1O)Oc1ccccc1 (stereo partly drawn) [drawing 462]
CC50 [11]: 369 µM | CC50 [3]: > 400 µM | CC50 [4]: > 400 µM

CC(C)OC(=O)[C@H](C)NP(=O)(OC[C@H]1O[C@@H](n2ccc(=O)[nH]c2=S)[C@H](O)[C@@H]1O)Oc1ccccc1 (stereo partly drawn) [drawing 463]
CC50 [2]: > 400 µM | CC50 [3]: > 400 µM | CC50 [4]: > 400 µM

CC(C)OC(=O)[C@H](C)NP(=O)(OC[C@H]1O[C@@H](n2ccc(=O)[nH]c2=S)[C@](C)(O)[C@@H]1O)Oc1ccccc1 (stereo partly drawn) [drawing 470]
EC50 [15]: 0.0882 µM | EC50 [16]: 0.083 µM | EC50 [17]: > 10 µM | CC50 [18]: > 10 µM | EC50 [19]: 0.132 µM | EC50 [20]: 0.0371 µM

CC(C)OC(=O)[C@H](C)N[P@](=O)(OC[C@H]1O[C@@H](n2ccc(=O)[nH]c2=O)[C@](C)(F)[C@@H]1O)Oc1ccccc1 [drawing 472]
EC50 [15]: 0.0385 µM | EC50 [16]: 0.0199 µM | EC50 [17]: 0.287 µM | CC50 [18]: > 2 µM | EC50 [19]: 0.0702 µM | EC50 [20]: 0.0493 µM

C[C@@]1(O)[C@H](O)[C@@H](CO)O[C@H]1n1ccc(=O)[nH]c1=S [drawing 473]
EC50 ([21]; Huh-7, read-out: Dengue Type 2 Huh-7 Cells (EC50 uM)): > 100 µM | EC50 ([21]; Vero, read-out: Dengue Type 2 Vero Cells (EC50 uM)): 7.79 µM | CC50 [22]: > 100 µM
